By IC50 is commonly meant the concentration that gives 50% inhibition.

Bounds are passed on as bounds.

T1 sequence (P08581 25-1390): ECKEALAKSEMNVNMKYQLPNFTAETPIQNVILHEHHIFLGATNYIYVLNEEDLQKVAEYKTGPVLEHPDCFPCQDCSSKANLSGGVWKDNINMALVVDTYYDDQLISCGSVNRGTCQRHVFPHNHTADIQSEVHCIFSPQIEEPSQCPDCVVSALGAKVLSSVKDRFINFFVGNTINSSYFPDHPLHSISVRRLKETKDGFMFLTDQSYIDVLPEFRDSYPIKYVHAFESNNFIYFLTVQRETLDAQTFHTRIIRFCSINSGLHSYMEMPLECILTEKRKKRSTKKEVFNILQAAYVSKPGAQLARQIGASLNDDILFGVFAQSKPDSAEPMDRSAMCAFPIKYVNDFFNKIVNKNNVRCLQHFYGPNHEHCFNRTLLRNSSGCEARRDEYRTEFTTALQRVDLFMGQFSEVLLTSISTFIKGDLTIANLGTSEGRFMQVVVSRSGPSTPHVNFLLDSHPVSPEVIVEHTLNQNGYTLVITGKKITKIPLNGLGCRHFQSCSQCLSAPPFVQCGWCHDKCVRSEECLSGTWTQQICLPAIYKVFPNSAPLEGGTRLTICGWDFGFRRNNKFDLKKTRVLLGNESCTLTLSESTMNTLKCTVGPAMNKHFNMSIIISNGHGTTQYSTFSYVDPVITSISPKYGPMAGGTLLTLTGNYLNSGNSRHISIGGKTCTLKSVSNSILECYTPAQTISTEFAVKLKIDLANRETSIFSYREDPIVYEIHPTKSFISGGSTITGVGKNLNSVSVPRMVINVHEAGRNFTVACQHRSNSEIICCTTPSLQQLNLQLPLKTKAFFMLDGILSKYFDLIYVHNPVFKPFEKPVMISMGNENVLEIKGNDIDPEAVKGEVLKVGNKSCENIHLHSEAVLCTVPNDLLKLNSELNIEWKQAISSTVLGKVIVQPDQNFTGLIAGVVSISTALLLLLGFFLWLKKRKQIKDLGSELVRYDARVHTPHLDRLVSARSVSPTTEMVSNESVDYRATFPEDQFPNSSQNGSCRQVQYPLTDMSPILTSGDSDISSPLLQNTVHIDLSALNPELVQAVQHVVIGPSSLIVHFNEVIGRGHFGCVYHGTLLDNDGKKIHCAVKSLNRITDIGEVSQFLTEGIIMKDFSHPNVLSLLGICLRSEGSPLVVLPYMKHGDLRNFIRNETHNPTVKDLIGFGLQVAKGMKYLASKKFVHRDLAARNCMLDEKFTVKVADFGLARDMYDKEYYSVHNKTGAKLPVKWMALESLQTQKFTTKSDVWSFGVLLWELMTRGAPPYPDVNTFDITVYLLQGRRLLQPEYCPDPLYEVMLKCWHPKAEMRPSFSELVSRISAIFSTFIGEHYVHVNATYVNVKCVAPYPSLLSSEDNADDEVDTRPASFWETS

This test concerns the target T1, c-Met kinase (recombinant c-Met) (Homo sapiens, UniProt P08581).
T1 construct: 0.27 nM recombinant c-Met
The test is described as follows: In vitro kinase assay I (homogeneous time-resolved fluorescence tyrosine kinase assay). It counts as biochemical. The procedure:
The kinase activities of c-Met are measured using a modified version of the homogeneous-time-resolved tyrosine kinase assay described by Park et al. (1999, Anal. Biochem. 269:94-104).
The procedure for determining the potency of a compound to inhibit c-Met kinase comprises the following steps: • 1. Prepare 3-fold serial diluted compound solutions in 100% dimethyl sulfoxide (DMSO) at 20× of the desired final concentrations in a 384-well plate. • 2. Prepare a master reaction mix containing 6.67 mM MgCl2, 133.3 mM NaCl, 66.7 mM Tris-HCl (pH 7.4), 0.13 mg/ml BSA, 2.67 mM dithiothreitol, 0.27 nM recombinant c-Met and 666.7 nM biotinylated synthetic peptide substrate (biotin-ahx-EQEDEPEGDYFEWLE-CONH2) (SEQ.ID.NO.:1). • 3. In a black assay plate, add 1.5 μl of compound solution (or DMSO) and 22.5 μl of master reaction mix per well. Initiate the kinase reaction by adding 6 μl of 0.25 mM MgATP per well. Allow the reactions to proceed for 60 min at room temperature. The final conditions for the reaction are 0.2 nM c-Met, 0.5 μM substrate, 50 μM MgATP, 5 mM MgCl2, 100 mM NaCl, 2 mM DTT, 0.1 mg/ml BSA, 50 mM Tris (pH 7.4) and 5% DMSO. • 4. Stop the kinase reaction with 30 μl of Stop/Detection buffer containing 10 mM EDTA, 25 mM HEPES, 0.1% TRITON X-100, 0.750 nM Eu-chelate labeled anti-phosphotyrosine antibody PY20 (cat. #AD0067, PerkinElmer) and 50 μg/ml Streptavidin-allophycocyanin conjugate (cat. #PJ25S, Prozyme). • 5. Read HTRF signals on a Victor reader (PerkinElmer) in HTRF mode after 60-min incubation at room temperature in the dark. • 6. IC50 is determined by fitting the observed relationship between compound concentration and HTRF signal with a 4-parameter logistic equation. II. GTL-16 pY1349 Cell-Based Assay
For the compound `O=C(Nc1cccc(Cc2nn(-c3ccc(F)c(F)c3)ccc2=O)c1)OCC1CCOCC1` [Example 527, tetrahydro-2H-pyran-4-ylmethyl (3-{[1-(3,4-difluorophenyl)-4-oxo-1,4-dihydropyridazin-3-yl]methyl}phenyl)carbamate], the concentration for half-maximal inhibition (IC50) is under 100 nM.
The value for `O=c1ccn(-c2ccc(F)c(F)c2)nc1Cc1cccc(-c2ncc(OCC3(O)CCOCC3)cn2)c1` [Example 373, 1-(3,4-difluorophenyl)-3-(3-{5-[(4-hydroxytetrahydro-2H-pyran-4-yl)methoxy]pyrimidin-2-yl}benzyl)pyridazin-4(1H)-one] was under 100 nM; that for `Cn1cc(-n2ccc(=O)c(Cc3cccc(-c4ncc(Br)cn4)c3)n2)cn1` [Example 465, 3-[3-(5-Bromopyrimidin-2-yl)benzyl]-1-(1-methyl-1H-pyrazol-4-yl)pyridazin-4(1H)-one] was under 100 nM; that for `CCn1cc(-n2ccc(=O)c(Cc3cccc(-c4ncc(OCC5COCCO5)cn4)c3)n2)cn1` (racemic) [Example 311, rac-3-{3-[5-(1,4-dioxan-2-ylmethoxy)pyrimidin-2-yl]benzyl}-1-(1-ethyl-1H-pyrazol-4-yl)pyridazin-4(1H)-one] was under 100 nM.
The figure for `Cn1cc(-n2ccc(=O)c(Cc3cccc(NC(=O)OCCC4CCNCC4)c3)n2)cn1` [Example 624, 2-piperidin-4-ylethyl (3-{[1-(1-methyl-1H-pyrazol-4-yl)-4-oxo-1,4-dihydropyridazin-3-yl]methyl}phenyl)carbamate] is under 100 nM.
The figure for `N#Cc1ccc(-n2ccc(=O)c(Cc3cccc(NC(=O)OCC4CCOC4)c3)n2)cc1` (racemic) [Example 139, rac-tetrahydrofuran-3-ylmethyl (3-{[1-(4-cyanophenyl)-4-oxo-1,4-dihydropyridazin-3-yl]methyl}phenyl)carbamate] is under 100 nM.
Consider `Cn1cc(-n2ccc(=O)c(Cc3cccc(-c4ncc(OCc5cccnc5)cn4)c3)n2)cn1` [Example 355, 1-(1-methyl-1H-pyrazol-4-yl)-3-{3-[5-(pyridin-3-ylmethoxy)pyrimidin-2-yl]benzyl}pyridazin-4(1H)-one], for which the IC50 is under 100 nM.
Consider `CC(C)(O)COc1cnc(-c2cccc(Cc3nn(-c4cc(F)cc(C#N)c4)ccc3=O)c2)nc1` [Example 6, 3-Fluoro-5-[3-{3-[5-(2-hydroxy-2-methylpropoxy)pyrimidin-2-yl]benzyl}-4-oxopyridazin-1(4H)-yl]benzonitrile], for which the IC50 is under 100 nM.
The figure for `Cn1cc(-n2ccc(=O)c(Cc3cccc(NC(=O)OCC4CCCCO4)c3)n2)cn1` (racemic) [Example 563, rac-tetrahydro-2H-pyran-2-ylmethyl (3-{[1-(1-methyl-1H-pyrazol-4-yl)-4-oxo-1,4-dihydropyridazin-3-yl]methyl}phenyl)carbamate] is under 100 nM.
The value for `CC(C)COC(=O)Nc1cccc(Cc2nn(-c3ccc(-c4cccnc4)cc3)ccc2=O)c1` [Example 727, 2-Methylpropyl[3-({4-oxo-1-[4-(pyridin-3-yl)phenyl]-1,4-dihydropyridazin-3-yl}methyl)phenyl]carbamate] was under 100 nM; that for `COc1ccnc2ccc(Cc3nn(-c4cnn(C)c4)ccc3=O)cc12` [Example 142, 3-[(4-methoxyquinolin-6-yl)methyl]-1-(1-methyl-1H-pyrazol-4-yl)pyridazin-4(1H)-one] was 100 to 1000 nM.
The value for `CCCOC(=O)Nc1cccc(Cc2nn(-c3cnn(CCOC)c3)ccc2=O)c1` [Example 107, propyl [3-({1-[1-(2-methoxyethyl)-1H-pyrazol-4-yl]-4-oxo-1,4-dihydropyridazin-3-yl}methyl)phenyl]carbamate] was 100 to 1000 nM.
Turning to `Cn1cc(-n2ccc(=O)c(Cc3cccc(NC(=O)OC4CCNCC4)c3)n2)cn1` [Example 618, piperidin-4-yl (3-{[1-(1-methyl-1H-pyrazol-4-yl)-4-oxo-1,4-dihydropyridazin-3-yl]methyl}phenyl)carbamate], the IC50 fell in the range of 100 to 1000 nM.
`Cn1cc(-n2ccc(=O)c(Cc3cccc(-c4noc(CC5CCOCC5)n4)c3)n2)cn1` [Example 746]: the IC50 lay in the range of 100 to 1000 nM.

(Values after US20120264735A1 (priority 2009, published 2012).)
